Reference: patent publication US20250161243A1, “MEF2 TRANSCRIPTIONAL ACTIVATORS TO TREAT NEUROLOGIC CONDITIONS” (The Scripps Research Institute, priority 2022, published 2025)
Structures can show the parent of a compound that is named as a salt. Where two headings read alike, the source gives them in different places.

How the values were obtained:
[1] = tested on: MEF2 transcriptional activity; assay: MEF2 transcriptional activity screen (Luciferase-MEF2 reporter in human neural progenitor cells); format: cell-based
[2] = literature references given; cited from earlier work
[3] = Homo sapiens, concentration for half-maximal activity derived from the hill equation model, MEF2 luciferase reporter, read-out: qAC50
[4] = concentration for half-maximal activity derived from the hill equation model, MEF2 luciferase reporter, read-out: qAC50

Molecule	EC50 [1, 3] [M]	EC50 [1, 4] [M]	also measured
CC(C)(CO)c1cc2cc(NC(=O)C3(c4ccc5c(c4)OC(F)(F)O5)CC3)c(F)cc2n1C[C@@H](O)CO [VX-661]	> 1.99e-05		
CY-190602		2.41e-06	
O=C(Nc1nc2cccc(-c3ccc(CN4CCS(=O)(=O)CC4)cc3)n2n1)C1CC1 [Filgotinib]		> 1.99e-05	
COC(=O)C1=C(C)NC(C)=C(C(=O)OC(C)C)C1c1ccccc1[N+](=O)[O-] (stereo not drawn)	1.53e-06		
COc1cccc(-c2ccc(NC(=O)C3=C(C(=O)O)CCC3)c(F)c2)c1 [vidofludimus]	> 1.99e-05		
O=C(NO)c1cnc(N2C[C@@H]3[C@H](C2)[C@H]3NCc2ccc3cc(F)ccc3n2)nc1 [CHR-3996]	2.8e-07		
C#Cc1cccc(Nc2ncnc3cc(OC)c(OCCCCCCC(=O)NO)cc23)c1 [CUDC-101]	1.05e-06		
CCCCc1ccc2[nH]c(NC(=O)OC)nc2c1 [PARBENDAZOLE]		1.75e-06	
CN(C)CCCn1c(=O)c2ccccc2c2ccccc21 [FANTRIDONE]		5.38e-06	
CCN(CC)Cc1ccc2cc(COC(=O)Nc3ccc(C(=O)NO)cc3)ccc2c1 [Givinostat hydrochloride]	9.72e-07		
CN(C)CCOc1ccc2[nH]c(C(=O)NCC#Cc3ccc(C(=O)NO)cc3)cc2c1 [CRA-026440]		1.29e-05	
CN(C)CCNC(=O)c1cccc2cc3ccccc3nc12 [SN-22995]	> 1.99e-05		
Cn1cnc2c(F)c(Nc3ccc(Br)cc3F)c(C(=O)NOCCO)cc21 [binimetinib]		> 1.99e-05	
Cn1nccc1Nc1nccc(-c2ccn([C@H](CO)c3ccc(Cl)c(F)c3)c(=O)c2)n1 [RG-7842]	1.23e-05		
O=c1cc(-c2ccc(O)cc2)oc2cc(O)cc(O)c12 [APIGENIN]	4.69e-06		
CC(C)(C)c1[nH]cnc1/C=c1\[nH]c(=O)/c(=C/c2ccccc2)[nH]c1=O [plinabulin]		2.67e-06	
CN(C)C(C(=O)Nc1ccc2c(=O)[nH]ccc2c1)c1ccsc1 (stereo not drawn) [Verosudil]		7.54e-06	
Cc1c(OCC(F)(F)F)ccnc1C[S@@+]([O-])c1nc2ccccc2[nH]1 [dexlansoprazole]		> 1.99e-05	
Chidamide		3.67e-08	
CCOC(=O)OC(C)OC(=O)CNC(=O)[C@@H](CSSC[C@@H](N)CCSC)Cc1ccccc1 (stereo partly drawn) [PL-37]	1.29e-05		
Cn1cc(-c2ccc(S(=O)(=O)n3ccc(/C=C/C(=O)Nc4ccccc4N)c3)cc2)cn1 [4SC-202]	1.75e-05		

Molecule	EC50 [1, 3] [M]	EC50 [1, 4] [M]	also measured
CC(CO)(CO)NCc1ccc2c3c(cccc13)-c1ccccc1-2 [773U82]	1.89e-05		
COc1ccc2[nH]c(C(=O)c3ccccc3)cc2c1 [D-64131]		3.74e-06	
O=C(CCCCCCC(=O)Nc1cccnc1)NO [pyroxamide]	> 1.99e-05		
CC(C)c1ccc(CN2CCN(C(c3ccc(F)cc3)c3ccc(F)cc3)CC2)c(=O)c(NCCO)c1 [U 92032]	> 1.99e-05		
CCCCCCC(C)(C)c1cc(O)c2c(c1)OC(C)(C)[C@H]1CC=C(CO)C[C@H]21 [Dexanabinol]	7.97e-06		
COC(=O)Nc1nc2cc(C3(O)c4ccccc4C(=O)N3c3cc(Cl)ccc3C)ccc2[nH]1 (stereo not drawn) [BMS-908662]		> 1.99e-05	
CN(C)Cc1ccc(S(=O)(=O)n2ccc(/C=C/C(=O)NO)c2)cc1 [resminostat]		1.23e-06	
CN(C)Cc1c(C(=O)NCCOc2ccc(C(=O)NO)cc2)oc2ccccc12 [abexinostat]	2.2e-06		
O=C(/C=C/c1cccc(S(=O)(=O)Nc2ccccc2)c1)NO [belinostat]	6.7e-07		
CCCc1cc(O)c2c(c1)OC(C)(C)[C@@H]1CCC(C)=C[C@@H]21 [DELTA-9-TETRA-[…]]	2.29e-06		
CCCCCN=C(N)Nc1nc(-c2cnc(C)[nH]2)cs1 [CP 66948]		> 1.99e-05	
COC(=O)Nc1nc2cc(Sc3ccc(NC(=O)[C@H](C)N)cc3)ccc2[nH]1 [DENIBULIN]		1.51e-06	
O=C(/C=C/c1ccc(CN(CCO)CCc2c[nH]c3ccccc23)cc1)NO [LAQ 824]		5.3e-07	
CNS(=O)(=O)Nc1nccc(Cc2c(C)c3ccc(Oc4ncccn4)cc3oc2=O)c1F [RO-5126766]	3.91e-08		PAMPA Pe (10^−6 cm s^−1) [2]: 6 10^−6 cm s^−1
COC(=O)C1=C(C)NC(C)=C(C(=O)OCC(C)=O)C1c1ccccc1[N+](=O)[O-] (stereo not drawn) [ARANIDIPINE]		3.11e-06	
Cc1nn(C)cc1CN1CCC(c2ccc(C(=O)Nc3ccccc3N)cc2)CC1 [AZD-9468]		> 1.99e-05	
Acriflavine		2.31e-06	
retapamulin		1.96e-05	
CC(=O)Nc1ccc(C(=O)Nc2ccccc2N)cc1 [Tacedinaline]	1.31e-05		
O=C(NOCC1CC1)c1ccc(F)c(F)c1Nc1ccc(I)cc1Cl [CI-1040]	8.54e-07		
N/C(=N\Nc1ccccc1)c1ccccc1 [CBS-1114]	> 1.99e-05		

Molecule	EC50 [1, 3] [M]	EC50 [1, 4] [M]	also measured
CCN1CCC(Oc2c(C#N)ncc3[nH]c4ncccc4c23)CC1 [GDC-0425]		1.26e-06	
O=C(NO)c1ccc(C2=Nc3ccccc3Oc3ccccc32)cc1 [EVP-0334]	3.03e-06		
COc1ccc(C(=O)/C(Br)=C/C(=O)O)cc1 [Bromebrate sodium]	> 1.99e-05		
O=c1oc(CCN2CCN(c3ccccc3)CC2)c(-c2ccc(Cl)cc2)o1 [CLODOXOPONE]	> 1.99e-05		
Clc1ccc2oc(C(c3ccccc3Cl)n3ccnc3)cc2c1 (stereo not drawn) [BECLICONAZOLE]		5.1e-06	
Nc1ccccc1NC(=O)c1ccc(CNC(=O)OCc2cccnc2)cc1 [entinostat]	1.49e-07		
O=C(Cc1ccc(-c2ccc(N3CCOCC3)cc2)cn1)NCc1cccc(F)c1 [KX-02]		5.8e-07	
O=C(CCCCCCNC(=O)c1cnc(N(c2ccccc2)c2ccccc2)nc1)NO [ricolinostat]		2.79e-06	
CC1(C)C(=O)Nc2cc3[nH]c(-c4ccncc4)nc3cc21 [ADIBENDAN]		> 1.99e-05	
OXAMFLATIN		> 1.99e-05	
CC[C@]1(O)C[C@@H]2CN(CCc3c([nH]c4ccccc34)[C@@](C(=O)OC)(c3cc4c(cc3OC)N(C)[C@H]3[C@@](O)(C(=O)OC)[C@H](OC(C)=O)[C@]5(CC)C=CCN6CC[C@]43[C@@H]65)C2)C1 [Vinblastine sulfate]			EC50 ([1]; read-out: qAC50): 6.73e-08 M
CC(C)Nc1cc(-c2c[nH]c(C(=O)N[C@H](CO)c3cccc(Cl)c3)c2)c(Cl)cn1 [BVD-523]		9.87e-07	
CN1Cc2ccccc2[C@@H]2c3cccc4[nH]cc(c34)C[C@H]21 [CY-208-243]		1.96e-05	
C=C(C)[C@]12C[C@@H](C)[C@@]34O[C@](Cc5ccccc5)(O[C@@H]1[C@@H]3C=C(COC(=O)Cc1ccc(O)c(OC)c1)C[C@]1(O)C(=O)C(C)=C[C@@H]41)O2 [Resiniferatoxin]	5.11e-09		
COc1ccc2nc(-c3cccc(F)c3)cc(O)c2c1OP(=O)(OCc1ccccc1)OCc1ccccc1 [TRX-818]	1.01e-05		
CCCCc1nc2cc(/C=C/C(=O)NO)ccc2n1CCN(CC)CC [pracinostat]	2.1e-07		
Cc1[nH]c2ccccc2c1CCNCc1ccc(/C=C/C(=O)NO)cc1 [Panobinostat lactate]	1.22e-08		
CN(C)CCCNC(=O)/C(=C/CCCCC(=O)NO)COc1cccc2ccccc12 [CG-200745]	2.14e-07		
Nc1c2ccccc2nc2ccccc12 [ACRISORCIN]	1.93e-05		PAMPA Pe (10^−6 cm s^−1) [2]: 6 10^−6 cm s^−1
COc1cc(F)c(F)c(Nc2ccc(I)cc2F)c1NS(=O)(=O)C1(C[C@H](O)CO)CC1 [Refametinib]	2.73e-06		
COc1ccc2[nH]cc(CCN(C(C)C)C(C)C)c2c1 [5-MeO-DIPT]		> 1.99e-05	

Molecule	EC50 [1, 3] [M]	EC50 [1, 4] [M]	also measured
CCCNC(=O)c1ccc2c(c1)N(C(C)CN1CCCC1)c1ccccc1S2 (stereo not drawn) [Apadoline]	1.97e-05		
COc1cc2c(cc1O)C[C@H]1c3c(cc(O)c(OC)c3-2)CCN1C [boldine]	1.33e-05		
C/C(=N\NC(=O)c1ccc(C(=O)O)s1)c1csc(-c2ccc(Cl)c(Cl)c2)c1O [ONO-7746]	2.57e-06		
CC[C@@H]1C(=O)N(C)c2cnc(Nc3ccc(C(=O)NC4CCN(C)CC4)cc3OC)nc2N1C1CCCC1 [BI-2536]	2.09e-07		
CCC(C)SSc1ncc[nH]1 (stereo not drawn) [PX-12]		9.95e-07	
CSCCOC(=O)C1=C(C)NC(C)=C(C(=O)OCCSC)C1c1ccccc1[N+](=O)[O-]	2.07e-06		
O=C(NOCCO)c1cc(CN2OCCCC2=O)c(F)c(F)c1Nc1ccc(I)cc1F [CH-4987655]			EC50 ([1]; Homo sapiens, read-out: qAC50 [M]): 1.07e-07 M
O=C(NO)c1cnc(N2CCN(S(=O)(=O)c3ccc4ccccc4c3)CC2)nc1 [JNJ-16241199]	1.59e-07		
XR 5944		4.52e-06	
C[C@H](Nc1cc(-c2cnn(C)c2)cc(Nc2cnccn2)n1)c1ccc(F)cc1 [NS-018]		1.12e-05	
COc1ccc2c(c1)-c1nn(CCCN(C)C)c3ccc([N+](=O)[O-])c(c13)N2 [Pyrazoloacridine]		> 1.99e-05	
CN(C)c1ccc2nc3ccc(N(C)C)cc3[s+]c2c1 [methylthioninium chloride]		3.77e-06	
CCOC(=O)/C(=C/c1ncc([N+](=O)[O-])n1C)C(C)=O [Propenidazole]		3.11e-06	
CCN(CC)CCNc1ccc(CNC)c2sc3ccccc3c(=O)c12 [WIN 33156]	> 1.99e-05		
C[C@H](NC(=O)C(=O)Nc1ccccc1C(C)(C)C)C(=O)N[C@@H](CC(=O)O)C(=O)COc1c(F)c(F)cc(F)c1F [emricasan]	8.71e-06		
Cc1sc2c(c1C)C(c1ccc(Cl)cc1)=N[C@@H](CC(=O)Nc1ccc(O)cc1)c1nnc(C)n1-2 [OTX-015]	4.51e-07		
CC(=O)C(=Cc1ccccc1)C(C)=O	1.57e-05		
CC(C)OC(=O)CCC/C=C\C[C@H]1C(=O)C=C[C@@H]1/C=C/[C@@H](O)CCc1ccccc1 [Posaraprost]	> 4.97e-06		
Cn1cc(CNCC2CCN(c3ncc(C(=O)NO)cn3)CC2)c2ccccc21 [quisinostat]	9.07e-08		
